According to PubChem BioAssay AID330 (DTP/NCI, 2004):
Several values for one entry are separate records, joined by “and”; a condition that tells them apart may be missing. Equal entries are not always repeated. Inconclusive results and toxic doses are left out. How the source made its calls: active means survival T/C of 150% or more; inactive means T/C below 125% in these data.

System: P388 leukemia ip, CD2F1 mice, survival T/C
Experiment: NCI In Vivo Anticancer Drug Screen. Data for tumor model P388 Leukemia (intraperitoneal) in CD2F1 (CDF1) mice
Settings: endpoint: median survival time, higher = longer survival
Method in brief: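 Mice carrying the transplanted tumor received test compound or vehicle. Survival was recorded in each group, and the value is the treated-group measurement divided by that of the vehicle-treated control group.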

[1] = dose: 50.0 mg/kg/injection, schedule: Q01DX005 (ip), vehicle: Klucel (hydroxypropylcellulose) (HPC)
[2] = dose: 100.0 mg/kg/injection, schedule: Q01DX005 (ip), vehicle: Klucel (hydroxypropylcellulose) (HPC)
[3] = dose: 200.0 mg/kg/injection, schedule: Q01DX005 (ip), vehicle: Klucel (hydroxypropylcellulose) (HPC)
[4] = dose: 50.0 mg/kg/injection, schedule: Q01DX009 (ip), vehicle: Klucel (hydroxypropylcellulose) (HPC)
[5] = dose: 100.0 mg/kg/injection, schedule: Q01DX009 (ip), vehicle: Klucel (hydroxypropylcellulose) (HPC)
[6] = dose: 200.0 mg/kg/injection, schedule: Q01DX009 (ip), vehicle: Klucel (hydroxypropylcellulose) (HPC)
[7] = dose: 50.0 mg/kg/injection, schedule: Q01DX009 (ip), vehicle: saline with Tween-80
[8] = dose: 100.0 mg/kg/injection, schedule: Q01DX009 (ip), vehicle: saline with Tween-80
[9] = dose: 200.0 mg/kg/injection, schedule: Q01DX009 (ip), vehicle: saline with Tween-80
[10] = dose: 50.0 mg/kg/injection, schedule: Q01DX009 (ip), vehicle: saline
[11] = dose: 100.0 mg/kg/injection, schedule: Q01DX009 (ip), vehicle: saline
[12] = dose: 200.0 mg/kg/injection, schedule: Q01DX009 (ip), vehicle: saline
[13] = dose: 60.0 mg/kg/injection, schedule: Q01DX005 (ip), vehicle: saline with Tween-80
[14] = dose: 120.0 mg/kg/injection, schedule: Q01DX005 (ip), vehicle: saline with Tween-80
[15] = dose: 240.0 mg/kg/injection, schedule: Q01DX005 (ip), vehicle: saline with Tween-80
[16] = dose: 50.0 mg/kg/injection, schedule: Q01DX005 (ip), vehicle: saline with Tween-80
[17] = dose: 100.0 mg/kg/injection, schedule: Q01DX005 (ip), vehicle: saline with Tween-80
[18] = dose: 100.0 mg/kg/injection, schedule: Q01DX001 (ip), vehicle: Klucel (hydroxypropylcellulose) (HPC)
[19] = dose: 200.0 mg/kg/injection, schedule: Q01DX001 (ip), vehicle: Klucel (hydroxypropylcellulose) (HPC)
[20] = dose: 400.0 mg/kg/injection, schedule: Q01DX001 (ip), vehicle: Klucel (hydroxypropylcellulose) (HPC)
[21] = dose: 12.5 mg/kg/injection, schedule: Q01DX009 (ip), vehicle: saline with Tween-80
[22] = dose: 25.0 mg/kg/injection, schedule: Q01DX009 (ip), vehicle: saline with Tween-80

Measured: T/C

C=C(Cl)C(=NC(C)(C)C)Nc1ccc(C(=O)OCC)cc1
inactive: [1] 103 % of control | [2] 100 % of control | [3] 118 % of control

CCC(=O)OC1(c2ccccc2)CCP(C)(=S)CC1 (stereo unspecified)
inactive: [4] 97 % of control | [5] 106 % of control | [6] 101 % of control

COc1ccc2nc3ccccc3c(NCCNCCO)c2c1
inactive: dose: 1.25 mg/kg/injection, schedule: Q01DX009 (ip), vehicle: saline 105 % of control | dose: 2.5 mg/kg/injection, schedule: Q01DX009 (ip), vehicle: saline 105 % of control | dose: 5.0 mg/kg/injection, schedule: Q01DX009 (ip), vehicle: saline 120 % of control

CCCCOc1ccc(C(C)c2cc3c(cc2OCC)OCO3)cc1 (stereo unspecified)
inactive: dose: 25.0 mg/kg/injection, schedule: Q01DX005 (ip), vehicle: Klucel (hydroxypropylcellulose) (HPC) 103 % of control | [1] 103 % of control | [2] 100 % of control | [3] 104 % of control

C[As](C)[Se]CC1OC2OC(C)(C)OC2C2OC(C)(C)OC12 (stereo unspecified)
inactive: [4] 89 % of control | [5] 90 % of control | [6] 92 % of control

C[N+](C)(C)C1CCC2CCCCC2C1 (stereo unspecified)
inactive: dose: 12.5 mg/kg/injection, schedule: Q04DX003 (ip), vehicle: saline with Tween-80 103 % of control | dose: 25.0 mg/kg/injection, schedule: Q04DX003 (ip), vehicle: saline with Tween-80 100 % of control and 107 % of control and 98 % of control | dose: 50.0 mg/kg/injection, schedule: Q04DX003 (ip), vehicle: saline with Tween-80 100 % of control and 104 % of control and 124 % of control | dose: 100.0 mg/kg/injection, schedule: Q04DX003 (ip), vehicle: saline with Tween-80 98 % of control

C1OC2OCC1O2
inactive: [7] 87 % of control | [8] 93 % of control | [9] 105 % of control

CN(C)c1cc(N(C)C)c2cc(-c3ccccc3)sc2n1
inactive: [4] 98 % of control | [5] 103 % of control | [6] 96 % of control

CN1NC(=O)c2ccccc2NC1=S
inactive: [4] 104 % of control | [5] 91 % of control | [6] 101 % of control

FC(F)(F)c1ccccc1N=Cc1cccs1
inactive: [10] 113 % of control | [11] 103 % of control | [12] 104 % of control

CCn1c(C)nc2c(N)cc(C(F)(F)F)cc21 (tested in a mixture with another compound)
inactive: dose: 30.0 mg/kg/injection, schedule: Q01DX005 (ip), vehicle: Klucel (hydroxypropylcellulose) (HPC) 95 % of control | dose: 60.0 mg/kg/injection, schedule: Q01DX005 (ip), vehicle: Klucel (hydroxypropylcellulose) (HPC) 100 % of control | dose: 120.0 mg/kg/injection, schedule: Q01DX005 (ip), vehicle: Klucel (hydroxypropylcellulose) (HPC) 99 % of control

O=C(/N=C1\N=Nc2nc(C(C(=O)c3ccc(F)cc3)c3nc4n(c3O)/C(=N/C(=O)Nc3ccc(Cl)cc3)N=N4)c(O)n21)Nc1ccc(Cl)cc1 (stereo unspecified)
inactive: [13] 91 % of control | [14] 91 % of control | [15] 88 % of control

N#CC(C(=O)C(=O)Nc1cccc(C(F)(F)F)c1)c1ccccc1 (stereo unspecified)
inactive: [16] 93 % of control | [17] 100 % of control

CC1=NOC(=O)/C1=C/c1ccc(Cl)cc1
inactive: [13] 99 % of control | [14] 105 % of control | [15] 104 % of control

CC(/C=C/c1ccco1)=N\NC(=S)Nc1ccc(Cl)cc1
inactive: [18] 91 % of control | [19] 100 % of control | [20] 100 % of control

CCOc1c(N=Nc2ccccc2C)c(C)nn1C(N)=S
inactive: dose: 60.0 mg/kg/injection, schedule: Q01DX005 (ip), vehicle: Klucel + Tween-80 100 % of control | dose: 120.0 mg/kg/injection, schedule: Q01DX005 (ip), vehicle: Klucel + Tween-80 97 % of control | dose: 240.0 mg/kg/injection, schedule: Q01DX005 (ip), vehicle: Klucel + Tween-80 100 % of control

CCOP(=O)(CC1OCCCO1)OCC
inactive: [10] 98 % of control | [11] 100 % of control | [12] 102 % of control

O/N=C/C(=Nc1ccccc1N=C(/C=N/O)NO)NO
inactive: [13] 95 % of control | [14] 103 % of control | [15] 94 % of control

O=C1OCC(C(=O)N2Cc3cc4ccccc4nc3C2)C1CO (stereo unspecified)
inactive: [8] 94 % of control | [9] 115 % of control | dose: 400.0 mg/kg/injection, schedule: Q01DX009 (ip), vehicle: saline with Tween-80 105 % of control

ClC1CCCC[N-]1.ClC1CCCC[N-]1.[Cl][Pt+2][Cl] (stereo unspecified)
inactive: [21] 109 % of control | [22] 103 % of control | [7] 101 % of control | [8] 97 % of control | [9] 99 % of control

CCCC[As](CCCC)SC1CCC2(C)C(=CCC3C4CCC(=O)C4(C)CCC32)C1 (stereo unspecified)
inactive: dose: 12.5 mg/kg/injection, schedule: Q01DX009 (ip), vehicle: distilled water + Tween-80 98 % of control | dose: 25.0 mg/kg/injection, schedule: Q01DX009 (ip), vehicle: distilled water + Tween-80 98 % of control | dose: 50.0 mg/kg/injection, schedule: Q01DX009 (ip), vehicle: distilled water + Tween-80 92 % of control | dose: 100.0 mg/kg/injection, schedule: Q01DX009 (ip), vehicle: distilled water + Tween-80 89 % of control | dose: 200.0 mg/kg/injection, schedule: Q01DX009 (ip), vehicle: distilled water + Tween-80 107 % of control

NC(=O)c1c(-c2ccccc2)nc2n1CCS2
inactive: [18] 106 % of control | [19] 109 % of control | [20] 107 % of control

OCC1OC(n2cnc3c(SCc4ccccc4)ncnc32)C(O)C1O (stereo unspecified)
inactive: dose: 88.0 mg/kg/injection, schedule: Q01DX009 (ip), vehicle: saline with Tween-80 100 % of control | dose: 132.0 mg/kg/injection, schedule: Q01DX009 (ip), vehicle: saline with Tween-80 95 % of control | [9] 86 % of control

CC1CC(C)CN(C)C1 (stereo unspecified)
inactive: dose: 50.0 mg/kg/injection, schedule: Q01DX005 (ip), vehicle: saline 100 % of control | dose: 100.0 mg/kg/injection, schedule: Q01DX005 (ip), vehicle: saline 100 % of control

CC1(c2ccc(Cl)cc2)OC(=O)C(=Cc2ccc([N+](=O)[O-])s2)C(=O)O1 (stereo unspecified)
inactive: [8] 122 % of control

CCCCCCCCCCCCCCCC[N+](C)(C)CC(=O)O
inactive: [21] 104 % of control | [22] 86 % of control | [7] 105 % of control

O=C(O)CC12CC3CC(CC(C3)C1)C2
inactive: [4] 102 % of control | [5] 103 % of control | [6] 102 % of control

N#Cc1c(Cl)nc2sccn12
inactive: [18] 95 % of control | [19] 103 % of control

O=CNNC(=S)Nc1ccccc1
inactive: [7] 113 % of control | [8] 109 % of control | [9] 108 % of control

O=[N+]([O-])c1ccc(N=N/C(=N\Nc2ccccc2)c2nc3ccccc3[nH]2)c([N+](=O)[O-])c1
inactive: [16] 97 % of control | [17] 95 % of control | dose: 200.0 mg/kg/injection, schedule: Q01DX005 (ip), vehicle: saline with Tween-80 97 % of control
